Measured values published in ChEMBL document CHEMBL1143483, “A new antitumor compound from the plant Oryctanthus sp. as a VEGF receptor binding inhibitor” (Bioorg Med Chem Lett, 2005).

Biological target: Vascular endothelial growth factor receptor 2 (Homo sapiens, UniProt P35968)
Experiment: Inhibitory concentration against human Vascular endothelial growth factor receptor 2

Sequence of Vascular endothelial growth factor receptor 2 (P35968 whole entry): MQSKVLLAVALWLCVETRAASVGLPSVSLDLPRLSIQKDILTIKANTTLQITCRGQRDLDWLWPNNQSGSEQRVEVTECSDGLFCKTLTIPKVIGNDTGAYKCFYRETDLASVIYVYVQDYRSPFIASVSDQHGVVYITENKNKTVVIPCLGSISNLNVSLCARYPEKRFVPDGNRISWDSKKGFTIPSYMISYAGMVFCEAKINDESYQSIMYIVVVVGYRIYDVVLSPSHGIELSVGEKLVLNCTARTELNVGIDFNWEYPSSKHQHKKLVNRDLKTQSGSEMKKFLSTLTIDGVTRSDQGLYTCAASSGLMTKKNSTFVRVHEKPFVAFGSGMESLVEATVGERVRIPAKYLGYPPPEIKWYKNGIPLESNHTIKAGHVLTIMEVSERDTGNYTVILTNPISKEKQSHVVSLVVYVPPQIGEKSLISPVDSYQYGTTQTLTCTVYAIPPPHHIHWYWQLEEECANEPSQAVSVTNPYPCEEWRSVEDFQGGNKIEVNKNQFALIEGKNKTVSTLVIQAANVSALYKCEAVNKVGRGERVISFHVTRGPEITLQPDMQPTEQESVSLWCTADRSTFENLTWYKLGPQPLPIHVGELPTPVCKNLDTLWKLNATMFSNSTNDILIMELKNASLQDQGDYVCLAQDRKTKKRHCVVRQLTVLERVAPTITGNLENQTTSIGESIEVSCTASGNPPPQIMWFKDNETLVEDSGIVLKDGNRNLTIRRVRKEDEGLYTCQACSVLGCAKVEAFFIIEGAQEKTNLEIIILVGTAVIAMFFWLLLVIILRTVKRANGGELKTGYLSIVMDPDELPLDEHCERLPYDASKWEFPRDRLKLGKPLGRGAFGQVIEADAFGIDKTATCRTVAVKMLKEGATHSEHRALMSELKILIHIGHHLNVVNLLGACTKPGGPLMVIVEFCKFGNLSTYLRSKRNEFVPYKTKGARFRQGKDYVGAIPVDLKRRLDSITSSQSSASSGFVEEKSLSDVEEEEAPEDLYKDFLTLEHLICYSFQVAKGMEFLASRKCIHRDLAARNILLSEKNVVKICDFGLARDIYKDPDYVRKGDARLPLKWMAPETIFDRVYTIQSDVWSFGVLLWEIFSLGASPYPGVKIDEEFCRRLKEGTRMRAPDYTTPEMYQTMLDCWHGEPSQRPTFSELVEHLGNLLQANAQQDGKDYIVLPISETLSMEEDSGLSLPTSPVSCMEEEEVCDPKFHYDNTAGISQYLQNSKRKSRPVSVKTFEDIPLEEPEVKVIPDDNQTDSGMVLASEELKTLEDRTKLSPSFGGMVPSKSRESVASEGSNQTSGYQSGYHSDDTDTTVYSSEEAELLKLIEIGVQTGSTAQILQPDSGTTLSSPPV

- IC50: 5 µM
Compound: C/C(=C\C=C\CC(C)C(CC(=O)O)O[C@H]1O[C@@H](CO)[C@H](O)[C@H](O)[C@@H]1O)C(=O)O (stereo partly specified)
